Measurements reported in patent US10815226B2, “Heteroaryl compounds as inhibitors of necrosis, composition and application thereof” (ACCRO BIOSCIENCE INC., priority 2016, dated 2020).

How the values were obtained:
[1] = system: HT29 cells; experiment: HT29 cell necroptosis assay (TNF-α/Smac mimetic/z-VAD induced necrosis, viability); assay type: cell-based, human; conditions: 10 μM test compound pretreated one hour, TNF-α (40 ng/mL), Smacmimetic (100 nM), z-VAD (20 μM) for 48 hours
Method: Biological in Vitro HT29 Cell Assay.
The efficacies of RIP1 inhibitors were tested in vitro using human colon cancer TH29 cells in a necroptosis assay. For the assay, Cells were added to 96-well plates and then 10 μM of the test compound was pretreated for one hour. Then the cells were treated with TNF-α (40 ng/mL), Smacmimetic (100 nM) and z-VAD (20 μM) for 48 hours, and the viability was quantified. DMSO pretreatment group was negative control, Nec-1 pretreatment group was positive control.

[2] = system: HT29 cells; experiment: as above; assay type: cell-based, human; conditions: TNF-α/Smacmimetic/z-VAD induced necrosis
[3] = system: L929 cells; experiment: L929 cell necroptosis assay (same protocol as the HT29 cell assay); assay type: cell-based, mouse; conditions: for L929 Inhibition (10 μM): 10 μM test compound, protocol as HT29 assay; for IC50: Mus musculus
Method: The efficacies of RIP1 inhibitors were tested in vitro using human colon cancer TH29 cells in a necroptosis assay. […] Then the cells were treated with TNF-α (40 ng/mL), Smacmimetic (100 nM) and z-VAD (20 μM) for 48 hours, and the viability was quantified. DMSO pretreatment group was negative control, Nec-1 pretreatment group was positive control.
Biological In Vitro L929 Cell Assay.
Mouse L-cells NCTC 929 (L929) were acquired from ATCC (cat. no. ATCC CCL-1) and banked in liquid nitrogen. The assay protocol was the same as described for the HT29 cell assay.

[4] = Homo sapiens, HT-29, HT29 cells, values in nM
[5] = Homo sapiens, HT-29, HT29 cells, values given in μM

Row | Compound | HT29 Inhibition (10 μM) [1] [%] | IC50 [2, 4] [nM] | L929 Inhibition (10 μM) [3] [%] | further results
1 | CC(=O)Nc1nc2ccc(-c3cnc(C)c(NC(=O)CC4CCCC4)c3)cc2s1 [Compound A43] | 78 | 431 | – | –
2 | CC(=O)Nc1nc2ccc(-c3cncc(NC(=O)Cc4ccccc4F)c3)cc2s1 [Compound A16] | 36 | – | 86 | –
3 | CC(=O)Nc1cn2cc(-c3cnc(C)c(NC(=O)CC4CCCCC4)c3)ccc2n1 [Compound A46] | – | 900 | – | IC50 ([3]; values given in μM): 2.48 µM
4 | CC(=O)Nc1nc2ccc(-c3cnc(Cl)c(NC(=O)Cc4ccc(OCCOCCNC(=O)OC(C)(C)C)cc4)c3)cc2s1 [Compound A26] | 30 | – | 42 | –
5 | CC(=O)Nc1nc2ccc(-c3cncc(NC(=O)c4cccc(F)c4)c3)cc2s1 [Compound A5] | 50 | – | 90 | –
6 | CC(=O)Nc1nc2cc(-c3cnc(C)c(NC(=O)OC4CCCCC4)c3)ccn2n1 [Compound A58] | – | – | – | IC50 ([3]; values given in μM): 1 µM; IC50 [2, 5]: 1000 nM
7 | CC(=O)Nc1nc2ccc(-c3cncc(NC(=O)Cc4ccc(Cl)cc4)c3)cc2s1 [Compound A15] | 95 | – | 87 | –
8 | CC(=O)Nc1nc2ccc(-c3cnc(C)c(NC(=O)CC4CCCCC4)c3)cc2s1 [Compound A25] | 68 | 255 | – | –
9 | CC(=O)Nc1nc2ccc(-c3cnc(C)c(NC(=O)CC(C)C)c3)cc2s1 [Compound A44] | 47 | – | – | IC50 [2, 5]: 2690 nM
10 | CC(=O)Nc1nc2ccc(-c3cc(NC(=O)Cc4ccccc4)ccn3)cc2s1 [Compound A19] | 1 | – | 22 | –
11 | Cc1ncc(-c2ccc3nc(NC(=O)C4CC4)cn3c2)cc1NC(=O)OC1CCCCC1 [Compound A81, Cyclohexyl (5-(2-(cyclopropanecarboxamido)imidazo[1,2-a]pyridin-6-yl)-2-methylpyridin-3-yl)carbamate] | – | 9 | – | –
12 | Cc1ncc(-c2ccc3nc(NC(=O)C4CC4)sc3c2)cc1NC(=O)OC1CCOCC1 [Compound A71] | – | 12 | – | –
13 | CC(=O)Nc1nc2ccc(-c3cnc(C)c(NC(=O)O[C@H]4CC[C@@H](O)CC4)c3)cc2s1 [Compound A80] | – | 653 | – | –
14 | CC(=O)Nc1nc2ccc(-c3cncc(NC(=O)Cc4ccc(F)cc4)c3)cc2s1 [Compound A18] | 24 | – | 51 | –
15 | COc1ncc(-c2ccc3nc(NC(C)=O)sc3c2)cc1NC(=O)OC1CCCCC1 [Compound A69] | – | 107 | – | –
16 | CC(=O)Nc1nc2ccc(-c3cnc(F)c(NC(=O)OC4CCCCC4)c3)cc2s1 [Compound A90] | – | – | – | IC50 ([2]; HT29 cells, values in nM): 300 nM
17 | CC(=O)Nc1nc2ccc(-c3cccc(NC(=O)Cc4ccccc4Cl)c3)cc2s1 [Compound A28] | 34 | – | 45 | –
18 | CC(=O)Nc1nc2ccc(-c3cnc(C)c(NC(=O)OC4CCC(=O)CC4)c3)cc2s1 [Compound A78] | – | 867 | – | –
19 | CC(=O)Nc1nc2ccc(-c3cnc(Cl)c(NC(=O)Cc4ccc(OCCOCCNC(=O)CCCCCNC(=O)CCCC[C@@H]5SC[C@@H]6NC(=O)N[C@@H]65)cc4)c3)cc2s1 [Compound A27] | 48 | – | 42 | –
20 | COc1ncc(-c2ccc3nc(NC(C)=O)sc3c2)cc1NC(=O)Cc1ccccc1 [Compound A22] | 66 | – | 42 | –
21 | CCC(=O)Nc1nc2ccc(-c3cnc(C)c(NC(=O)OC4CCCCC4)c3)cc2s1 [Compound A60] | – | 53 | – | –
22 | Cc1ncc(-c2ccc3nc(NC(=O)C4CC4)sc3c2)cc1NC(=O)OC1CCCOC1 (stereo not shown) [Compound A68] | – | 31 | – | –
23 | CCC(C)OC(=O)Nc1cc(-c2ccc3nc(NC(C)=O)sc3c2)cnc1C (stereo not shown) [Compound A86] | – | 87 | – | –
24 | CC(=O)Nc1nc2ccc(-c3cnc(Cl)c(NC(=O)OC4CCCCC4)c3)cc2s1 [Compound A83] | – | 45 | – | –
25 | CCc1ncc(-c2ccc3nc(NC(C)=O)sc3c2)cc1NC(=O)OC1CCCCC1 [Compound A54] | – | 75 | – | IC50 ([3]; values in nM): 0.2 µM

Row | Compound | HT29 Inhibition (10 μM) [1] [%] | IC50 [2, 4] [nM] | L929 Inhibition (10 μM) [3] [%] | further results
26 | Cc1ncc(-c2ccc3nc(NC(=O)C4CC4)sc3c2)cc1NC(=O)OC1CCCCC1 [Compound A61] | – | 1.2 | – | IC50 ([3]; values in nM): 0.003 µM
27 | CC(=O)Nc1nc2ccc(-c3cnc(C#N)c(NC(=O)OC4CCCCC4)c3)cc2s1 [Compound A72] | – | 534 | – | –
28 | CC(=O)Nc1nc2ccc(-c3cnc(C)c(NC(=O)CN4CCCCC4)c3)cc2s1 [Compound A40] | 79 | – | – | IC50 [2, 5]: 1100 nM
29 | CC(=O)Nc1nc2ccc(-c3cccc(NC(=O)Cc4ccccc4)c3)cc2s1 [Compound A20] | 11 | – | 69 | –
30 | CC(=O)Nc1cn2cc(-c3cnc(C)c(NC(=O)OC4CCCCC4)c3)ccc2n1 [Compound A50, Cyclohexyl (5-(2-acetamidoimidazo[1,2-a]pyridin-6-yl)-2-methylpyridin-3-yl)carbamate] | – | 97 | – | –
31 | CC(=O)Nc1nc2ccc(-c3ccc(C)c(NC(=O)OC4CCCCC4)n3)cc2s1 [Compound A56, Cyclohexyl (6-(2-acetamidobenzo[d]thiazol-6-yl)-3-methylpyridin-2-yl) Carbamate] | – | 700 | – | IC50 ([3]; values in nM): 0.5 µM
32 | CNC(=O)Nc1nc2ccc(-c3cnc(C)c(NC(=O)OC4CCCCC4)c3)cc2s1 [Compound A94] | – | 10 | – | –
33 | CC(=O)Nc1nc2ccc(-c3ccnc(NC(=O)Cc4ccccc4Cl)c3)cc2s1 [Compound A30] | 38 | – | 45 | –
34 | CC(=O)Nc1nc2ccc(-c3cc(NC(=O)OC4CCCCC4)c(C)cn3)cc2s1 [Compound A51] | – | 73 | – | –
35 | CC(=O)Nc1nc2ccc(-c3cnc(C)c(NC(=O)OC4CCC(F)(F)CC4)c3)cc2s1 [Compound A59] | – | 689 | – | –
36 | Cc1ncc(-c2ccc3nc(NC(=O)c4ccccc4)sc3c2)cc1NC(=O)OC1CCCCC1 [Compound A104] | – | 60 | – | –
37 | CC(=O)Nc1nc2ccc(-c3cncc(NC(=O)Cc4cccc(Cl)c4)c3)cc2s1 [Compound A14] | 71 | – | 95 | –
38 | CC(=O)Nc1nc2ccc(-c3cnc(Cl)c(NC(=O)c4cccnc4)c3)cc2s1 [Compound A3] | 7 | – | 1 | –
39 | CC(=O)Nc1nc2ccc(-c3cnc(C)c(NC(=O)OC4CCCC4)c3)cc2s1 [Compound A47] | – | 124 | – | –
40 | CC(=O)Nc1ccc2cc(-c3cnc(C)c(NC(=O)OC4CCCCC4)c3)ccc2n1 [Compound A99] | – | 441 | – | –
41 | CC(=O)Nc1nc2ccc(-c3cnc(C)c(NC(=O)OC4CCCCC4)c3)cc2s1 [Compound A36, Cyclohexyl (5-(2-acetamidobenzo[d]thiazol-6-yl)-2-methylpyridin-3-yl)carbamate] | – | 30 | – | IC50 ([3]; values in nM): 0.005 µM
42 | Cc1ncc(-c2ccc3nc(NC(=O)C4CC4)cn3n2)cc1NC(=O)OC1CCCCC1 [Compound A67] | – | 31 | – | –
43 | Cc1ncc(-c2ccc3nc(NC(=O)CCCCCNC(=O)OC(C)(C)C)sc3c2)cc1NC(=O)Cc1ccccc1 [Compound A31] | 87 | – | – | IC50 [2, 5]: 3400 nM
44 | Nc1nc2ccc(-c3cnc(Cl)c(NC(=O)c4cccc(F)c4)c3)cc2s1 [Compound A1] | 112 | – | 48 | –
45 | CC(=O)Nc1nc2ccc(-c3cnc(F)c(NC(=O)OC4CCCCC4)c3)cc2s1 [Compound A84] | – | – | – | IC50 ([2]; HT29 cells, values in nM): 31 nM
46 | CC(=O)Nc1nc2ccc(-c3cc(NC(=O)Cc4ccccc4Cl)ccn3)cc2s1 [Compound A29] | 81 | – | 45 | –
47 | CC(=O)Nc1nc2ccc(-c3cc(NC(=O)OC4CCCCC4)c(C)nn3)cc2s1 [Compound A66, Cyclohexyl 6-(2-acetamidobenzo[d]thiazol-6-yl)-3-methylpyridazin-4-ylcarbamate] | – | 247 | – | –
48 | CC(=O)Nc1nc2ccc(-c3cnc(C)c(NC(=O)OC4CCC4)c3)cc2s1 [Compound A92] | – | 121 | – | –
49 | CC(=O)Nc1nc2ccc(-c3cnc(Cl)c(NC(=O)c4ccncc4)c3)cc2s1 [Compound A4] | 25 | – | 1 | –
